Calls of active or inactive are those of the source. The rule behind the calls is not given here.
What was measured:
[1] = Dark toxicity against human K562 cells assessed as reduction in cell viability after 72 hrs by MTT assay; type: cell-based
[2] = Dark toxicity against human Jurkat cells assessed as reduction in cell viability after 72 hrs by MTT assay; type: cell-based
Jurkat [3] = assay: Phototoxicity against human Jurkat cells assessed as reduction in cell viability preincubated for 30 mins followed by 1.25 J/cm2 UV light irradiation measured after 48 hrs by MTT assay; type: functional, cell-based; settings: light or radiation study
MCF7 [4] = assay: Phototoxic index, ratio of CC50 for human MCF7 cells under dark condition to EC50 for human MCF7 cells under UV light irradiated condition
K562 [5] = assay: Phototoxicity against human K562 cells assessed as reduction in cell viability preincubated for 30 mins followed by 1.25 J/cm2 UV light irradiation measured after 48 hrs by MTT assay; type: functional, cell-based; settings: K562, light or radiation study
Jurkat [6] = assay: Phototoxic index, ratio of CC50 for human Jurkat cells under dark condition to EC50 for human Jurkat cells under UV light irradiated condition
[7] = Dark toxicity against human MCF7 cells assessed as reduction in cell viability after 72 hrs by MTT assay; type: cell-based
MCF7 [8] = assay: Phototoxicity against human MCF7 cells assessed as reduction in cell viability preincubated for 30 mins followed by 1.25 J/cm2 UV light irradiation measured after 48 hrs by MTT assay; type: functional, cell-based; settings: MCF7, light or radiation study
K562 [9] = assay: Phototoxic index, ratio of CC50 for human K562 cells under dark condition to EC50 for human K562 cells under UV light irradiated condition
[10] = Induction of singlet oxygen photogeneration in aqueous acetonitrile solution of ADPA assessed as photobleaching of anthracene absorption upon 150 Watt mercury light irradiation at 400 nanometer measured up to 2 hrs
[11] = Singlet oxygen sensitizing activity in aqueous acetonitrile solution irradiated with nanosecond laser flash photolysis assessed as lowest triplet-excited state by measuring long lived transient life time at 10^-4 M at 450 nanometer under argon saturated condition by spectroscopic method
MCF7 [12] = assay: Induction of lysosomal activation in human MCF7 cells at 400 nM upon UV light irradiation measured up to 6 hrs by lysotracker green DND26 dye based confocal microscopic method; type: functional, cell-based
MCF7 [13] = assay: Induction of mitochondrial dysfunction in human MCF7 cells assessed as organelle fusion at 400 nM upon UV light irradiation measured after 6 hrs by mitotracker orange CMTM-ROS/LCS1 dye based confocal microscopic method; type: functional, cell-based
MCF7 [14] = assay: Induction of ROS generation in human MCF7 cells at 400 nM preincubated for 30 mins followed by UV light irradiation measured after 2 hrs by H2DCFDA staining based fluorescence assay relative to control; type: functional
Jurkat [15] = assay: Phototoxicity against human Jurkat cells assessed as reduction in cell viability at 0.1 uM preincubated for 30 mins followed by 2.5 J/cm2 UV light irradiation measured after 72 hrs in presence of hydroxyl radical scavenger DMTU by MTT assay; type: functional, cell-based
[16] = Solubility of the compound in aqueous acetonitrile solution; type: physicochemical; settings: buffer
Jurkat [17] = assay: Phototoxicity against human Jurkat cells assessed as reduction in cell viability at 0.1 uM preincubated for 30 mins followed by 2.5 J/cm2 UV light irradiation measured after 72 hrs in presence of antioxidant GSH by MTT assay; type: functional, cell-based
Jurkat [18] = assay: Phototoxicity against human Jurkat cells assessed as reduction in cell viability at 0.1 uM preincubated for 30 mins followed by 2.5 J/cm2 UV light irradiation measured after 72 hrs in presence of vitamin E by MTT assay; type: functional, cell-based
MCF7 [19] = assay: Induction of apoptosis in human MCF7 cells assessed as caspase-3 activation at 0.5 uM upon 2.5 J/cm2 UV light irradiation measured after 24 hrs by Western blot method; type: functional, cell-based
Jurkat [20] = assay: Phototoxicity against human Jurkat cells assessed as reduction in cell viability at 0.1 uM preincubated for 30 mins followed by 2.5 J/cm2 UV light irradiation measured after 72 hrs in presence of singlet oxygen scavenger sodium azide by MTT assay; type: functional, cell-based
Escherichia coli [21] = assay: Induction of Escherichia coli pBR322 DNA single strand break assessed as open circular form DNA bands at 10 to 40 uM upon 7.5 J/cm2 UV-A light irradiation by ethidium bromide staining based UV transillumination assay
Escherichia coli [22] = assay: Induction of Escherichia coli pBR322 DNA oxidative damage at 40 uM upon 7.5 J/cm2 UV-A light irradiation in presence of endonuclease-3 by ethidium bromide staining based electrophoresis
Jurkat [23] = assay: Induction of lipid peroxidation in human Jurkat cells upon 2.5 J/cm2 UV light irradiation measured after 24 hrs by TBARS assay; type: functional, cell-based
Escherichia coli [24] = assay: Induction of Escherichia coli pBR322 DNA oxidative damage at 40 uM upon 7.5 J/cm2 UV-A light irradiation in presence of Fpg by ethidium bromide staining based electrophoresis
Escherichia coli [25] = assay: Induction of Escherichia coli pBR322 DNA double strand break assessed as linear form DNA bands at 10 to 40 uM upon 7.5 J/cm2 UV-A light irradiation by ethidium bromide staining based UV transillumination assay

Row | Structure (SMILES) | CC50 at 72 h [1] | CC50 at 72 h [2] | EC50 (Jurkat [3]) | Ratio CC50/EC50 (MCF7 [4]) | EC50 (K562 [5]) | Ratio CC50/EC50 (Jurkat [6]) | CC50 at 72 h [7] | EC50 (MCF7 [8]) | Ratio CC50/EC50 (K562 [9]) | also measured
1 | CCOC(=O)c1cc2c(n1Cc1ccccc1)-c1[nH]c(=O)c(S(=O)(=O)c3ccccc3)cc1CCC2 | > 20 µM | > 20 µM | 0.3 µM | >14.22 | 0.4 µM | >66.67 | > 20 µM | 1.41 µM | >50 | 
2 | COc1ccc(Cn2ccc3c2-c2[nH]c(=O)c(S(=O)(=O)c4ccccc4)cc2CCC3)cc1 | > 20 µM | > 20 µM | 0.93 µM | >4.73 | 2.54 µM | >21.51 | > 20 µM | 4.23 µM | >7.87 | 
3 | COc1cccc(Cn2ccc3c2-c2[nH]c(=O)c(S(=O)(=O)c4ccccc4)cc2CCC3)c1 | > 20 µM | > 20 µM | > 20 µM | >10.76 | > 20 µM |  | > 20 µM | 1.86 µM |  | Activity [10]: inactive; Time [11]: > 30 microsec
4 | O=c1[nH]c2c(cc1S(=O)(=O)c1ccccc1)CCCc1ccn(Cc3ccccc3)c1-2 | > 20 µM | > 20 µM | 3.59 µM | >7.36 | 8.5 µM | >5.57 | > 20 µM | 2.72 µM | >2.35 | 
5 | CCOC(=O)c1cc2c(n1Cc1ccccc1OC)-c1[nH]c(=O)c(S(=O)(=O)c3ccccc3)cc1CCC2 | > 20 µM | > 20 µM | 0.19 µM | >21.36 | 0.27 µM | >105.26 | > 20 µM | 0.94 µM | >74.07 | 
6 | CCOC(=O)c1cc2c(n1C)-c1nc(OC)c(S(=O)(=O)c3ccccc3)cc1CCC2 | > 20 µM | > 20 µM | 0.25 µM | >11.76 | 0.63 µM | >80 | > 20 µM | 1.7 µM | >31.75 | 
7 | CCOC(=O)c1cc2c(n1C)-c1c(cc(S(=O)(=O)c3ccccc3)c(=O)n1C)CCC2 | > 20 µM | > 20 µM | 1.15 µM | >4.2 | 3.53 µM | >17.39 | > 20 µM | 4.76 µM | >5.67 | 
8 | CCCCCCCCCCCCCC(=O)O[C@@H]1[C@@H](C)[C@@]2(O)[C@@H](C=C(CO)C[C@]3(O)C(=O)C(C)=C[C@@H]23)[C@@H]2C(C)(C)[C@]12OC(C)=O [PHORBOL MYRISTATE ACETATE] |  |  |  |  |  |  |  |  |  | Activity (MCF7 [12]): Active; Activity (MCF7 [13]): Active; Activity (MCF7 [14]): 120%
9 | COc1nc2c(cc1S(=O)(=O)c1ccccc1)CCCc1ccn(C)c1-2 | > 20 µM | > 20 µM | 1.96 µM | >9.35 | 5.76 µM | >10.2 | > 20 µM | 2.14 µM | >3.47 | 
10 | Cn1ccc2c1-c1[nH]c(=O)c(S(=O)(=O)c3ccccc3)cc1CCC2 | > 20 µM | > 20 µM | > 20 µM | >6.77 | > 20 µM |  | > 20 µM | 2.96 µM |  | 
11 | CCOC(=O)c1cc2c(n1C)-c1[nH]c(=O)c(S(=O)(=O)c3ccccc3)cc1CCC2 | > 20 µM | > 20 µM | 3.3 µM | >20 | 10.7 µM | >6.06 | > 20 µM | 1 µM | >1.87 | 
12 | CCOC(=O)c1cc2c(n1Cc1ccc(OC)cc1)-c1nc(OC)c(S(=O)(=O)c3ccccc3)cc1CCC2 | > 20 µM | > 20 µM | 0.25 µM | >19.71 | 0.95 µM | >80 | > 20 µM | 1.01 µM | >21.05 | Activity (Jurkat [15]): Active; solubility [16]: Insoluble; Activity (Jurkat [17]): Active; Activity (Jurkat [18]): inactive; Activity (MCF7 [19]): Active; Activity (Jurkat [20]): Active; Activity (Escherichia coli [21]): inactive; Activity (Escherichia coli [22]): Active; Activity (Jurkat [23]): Dose-dependent effect; Activity (Escherichia coli [24]): Active; Activity (Escherichia coli [25]): inactive
13 | CCOC(=O)c1cc2c(n1Cc1cccc(OC)c1)-c1[nH]c(=O)c(S(=O)(=O)c3ccccc3)cc1CCC2 | > 20 µM | > 20 µM | 0.24 µM | >7.77 | 0.47 µM | >83.33 | > 20 µM | 2.58 µM | >42.55 | 
14 | COc1ccccc1Cn1ccc2c1-c1[nH]c(=O)c(S(=O)(=O)c3ccccc3)cc1CCC2 | > 20 µM | > 20 µM | 1.9 µM | >21.23 | 7.68 µM | >10.53 | > 20 µM | 0.94 µM | >2.6 | 
15 | COc1ccc(Cn2ccc3c2-c2nc(OC)c(S(=O)(=O)c4ccccc4)cc2CCC3)cc1 | > 20 µM | > 20 µM | 1.25 µM | >4.22 | 5.67 µM | >16 | > 20 µM | 4.74 µM | >3.53 | 
